We go through two compounds from PMC10222378 (Pharmaceuticals, 2023).

Data set [1] deals with human lymphocytes. Nature of the data set: CFSE lymphocyte proliferation assay after PHA activation. In kind it is cell-based. The conditions noted are these: 200 μM ClGBI. How it is done:
In this method, following the loading of cells with CFSE dye, each round of cell division is apparent by the reduced dye content and consequent lower fluorescence intensity of the daughter cells. […] Peripheral blood mononuclear cells (PBMCs) were isolated from the heparinized blood of healthy donors (n = 3) using the Ficoll–Hypaque separation method. […] The cells were grown in a humidified chamber at 37 °C and 5% CO2 for 6 days. As a negative control, unstimulated CFSE-labeled PBMCs were cultured in the same condition. […] After 6 days of proliferation, the CFSE-labeled cells were collected and analyzed by flow cytometry in an ACEA NovoCyte 2000R cytometer (Agilent, Santa Clara, CA, USA).

Data set [2] has as its target hKV1.4-IR (Homo sapiens, UniProt P22459). Nature of the data set: Whole-cell patch clamp on hKV1.4-IR in CHO cells. The conditions noted are these: estimated from single concentration (200 μM), bimolecular interaction assumed, n = 6, read-out: estimated Kd. Format: cell-based. An excerpt: (§1) Pulses were delivered every 30 s. […] […]. Red dashed line indicates no effect.
(§2) In general, the holding potential was −120 mV.
(§3) […]. […] […].
(§4) […]. All data are presented as means ± SEM.

In data set [3] the target is T1, hKV1.5 (Homo sapiens, UniProt P22460).
T1 construct: EYFP (pEYFP vector); expressed in transfected cells; host or cells: CHO cells, transient
Put plainly: Whole-cell patch clamp on hKV1.5 in CHO cells. Format: cell-based. Conditions: estimated from single concentration (200 μM), bimolecular interaction assumed, n = 4, read-out: estimated Kd.
Description: as §1, §2, §3, §4

Data set [4] addresses T2, hKV10.1 (Homo sapiens, UniProt O95259).
T2 construct: host or cells: CHO cells, transient, co-transfected with a separate GFP plasmid
T2 sequence (O95259 1-989): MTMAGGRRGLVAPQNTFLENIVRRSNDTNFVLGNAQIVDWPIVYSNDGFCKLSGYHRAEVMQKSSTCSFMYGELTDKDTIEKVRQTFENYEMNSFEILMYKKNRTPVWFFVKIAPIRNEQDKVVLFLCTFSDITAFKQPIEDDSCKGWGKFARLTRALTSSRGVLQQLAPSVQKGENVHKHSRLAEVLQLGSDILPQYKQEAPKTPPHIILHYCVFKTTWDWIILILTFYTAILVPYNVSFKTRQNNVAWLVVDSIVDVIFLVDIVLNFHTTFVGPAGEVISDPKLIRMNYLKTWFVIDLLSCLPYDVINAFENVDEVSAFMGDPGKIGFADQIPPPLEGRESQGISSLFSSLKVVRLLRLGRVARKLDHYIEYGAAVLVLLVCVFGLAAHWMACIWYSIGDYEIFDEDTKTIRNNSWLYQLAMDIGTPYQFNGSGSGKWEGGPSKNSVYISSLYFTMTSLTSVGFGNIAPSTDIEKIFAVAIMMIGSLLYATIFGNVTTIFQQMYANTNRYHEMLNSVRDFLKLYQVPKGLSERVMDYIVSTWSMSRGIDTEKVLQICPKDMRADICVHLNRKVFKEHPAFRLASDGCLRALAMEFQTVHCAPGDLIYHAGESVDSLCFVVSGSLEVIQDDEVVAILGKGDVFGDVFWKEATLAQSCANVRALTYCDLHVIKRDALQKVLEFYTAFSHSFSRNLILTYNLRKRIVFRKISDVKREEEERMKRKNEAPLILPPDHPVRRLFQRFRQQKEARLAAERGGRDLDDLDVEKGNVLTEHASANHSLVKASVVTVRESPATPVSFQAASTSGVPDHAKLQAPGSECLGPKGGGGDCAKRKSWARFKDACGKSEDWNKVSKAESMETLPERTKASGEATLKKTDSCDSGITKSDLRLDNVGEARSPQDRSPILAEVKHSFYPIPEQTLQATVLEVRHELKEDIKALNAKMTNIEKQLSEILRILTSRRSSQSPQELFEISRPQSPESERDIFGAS
Nature of the data set: Whole-cell patch clamp on hKV10.1 in CHO cells. Format: cell-based. Conditions: estimated from single concentration (200 μM), bimolecular interaction assumed, n = 5, read-out: estimated Kd.
Description: as §1, §2, §3, §4

Data set [5] has as its target T3, hKCa3.1 (Homo sapiens, UniProt O15554).
T3 construct: expressed in transfected cells; host or cells: CHO cells, transient
Put plainly: Whole-cell patch clamp on hKCa3.1 in CHO cells. In kind it is cell-based.
Description: as §1, §2, §3, §4
On the technique in general: In patch-clamp work, channel activity is measured electrically.

Data set [6] has as its target T4, hNaV1.4 (Homo sapiens, UniProt P35499).
T4 construct: expressed in transfected cells
Put plainly: Whole-cell patch clamp on hNaV1.4 stably expressed in HEK293 cells. Format: cell-based. The conditions noted are these: estimated from single concentration (200 μM), bimolecular interaction assumed, n = 4, read-out: estimated Kd.
Description: as §1, §2, §3, §4

Data set [7] has as its target T5, hNaV1.5 (Homo sapiens, UniProt Q14524).
T5 construct: expressed in transfected cells; host or cells: CHO cells, transient
Nature of the data set: Whole-cell patch clamp on hNaV1.5 in CHO cells. In kind it is cell-based. The conditions noted are these: estimated from single concentration (200 μM), bimolecular interaction assumed, n = 6, read-out: estimated Kd.
Description: as §1, §2, §3, §4

Data set [8] addresses voltage-gated proton (H+) channel (HV1). The arrangement: method as in PMID 24912149. Conditions: known HV1 inhibitor, value quoted in abstract; amphibian expression system; cited from earlier work.
Data set [9] concerns the target hKV11.1 (hERG) (Homo sapiens, UniProt Q12809). Nature of the data set: in vitro. Conditions: HEK293 cells stably expressing hKV11.1 (hERG), pH 7.35.
Data set [10] relates to hKV1.1, hKV1.4-IR, hKV1.5, hKV10.1, hKV11.1, hKCa3.1, hNaV1.4, hNaV1.5. Put plainly: in vitro. Conditions: human.
Description: (A–D) Currents were evoked from holding potentials of –100 mV by depolarizations to +50 mV for the time interval indicated on the panels. […] (E) hKV11.1 currents were measured with a voltage step from a holding potential of –80 mV to +20 mV, followed by a step to –40 mV, during which the peak current was measured. Pulses were delivered every 30 s. […] Red dashed line indicates no effect. Bars represent the mean of 3–8 independent measurements; error bars indicate the SEM.
Data set [11] concerns the target T6, hKV1.3 (Homo sapiens, UniProt P22001). Nature of the data set: Whole-cell patch clamp on hKV1.3 in activated human lymphocytes. Also noted: endogenous in cells. Format: cell-based.
Description: The essential role of voltage-gated KV1.3 channels in T cell activation and proliferation is well-documented, so we tested whether the proliferation was suppressed in part via a KV1.3 blockade. […]. The open probability of the channel at +50 mV is maximal, and the relatively short duration of the depolarizing periods prevented inactivation. The time between voltage pulses was set to 15 s to avoid the cumulative inactivation of hKV1.3 channels. Under the given experimental conditions (i.e., the voltage protocol used and the lack of Ca^2+ in the pipette solution), the whole-cell currents were conducted exclusively by hKV1.3 channels. […]. Human peripheral blood […] (PBMCs) were isolated from venous blood obtained from anonymized healthy donors. The peripheral blood mononuclear cells were isolated by Histopaque1077 (Sigma-Aldrich Hungary, Budapest, Hungary) density gradient centrifugation. The cells obtained were resuspended in Roswell Park Memorial Institute (RPMI) 1640 medium (Gibco, Cat# 11875085) containing 10% fetal calf serum (FCS, Sigma-Aldrich, St. Louis, MO, USA), 100 μg/mL penicillin, 100 μg/mL streptomycin, and 2 mM L-glutamine, seeded in a 24-well culture plate at a density of 5–6 × 10^5 cells/mL, and grown in a 5% CO2 incubator at 37 °C for 3–5 days. Phytohemagglutinin A (PHA, Sigma-Aldrich, St. Louis, MO, USA) was also added at a concentration of 8–12 μg/mL to the medium to amplify the expression level of KV1.3. CHO cells and PBMCs were gently washed twice with 2 mL of ECS (see below) for the patch clamp experiments. hKV1.3 currents were recorded on activated lymphocytes 3 to 4 days after activation.
as §2, §3, §4
To examine the binding kinetics, RCF was plotted as a function of time. The association time constant (τon) was determined by fitting the data points with a single exponential function, RCF=RCF0×e^−t/τon+C where RCF0 is the RCF value before the addition of the drug, and C is a constant term.

Data set [12] deals with T7, hKV1.1 (Homo sapiens, UniProt Q09470). Nature of the data set: Whole-cell patch clamp on hKV1.1 in CHO cells. The conditions noted are these: estimated from single concentration (200 μM), bimolecular interaction assumed, n = 5, read-out: estimated Kd. In kind it is cell-based. Also noted: host or cells: CHO cells, transient.
Description: as §1, §2, §3, §4

Data set [13] concerns the target T6, hKV1.3. Conditions: read-out: Kd (concentration of positive control equivalent to its Kd), no reference given; cited from earlier work.
The target of data set [14] is T7, hKV1.1. The conditions noted are these: read-out: Kd (concentration of positive control equivalent to its Kd), no reference given; cited from earlier work.

Several values for one entry are separate records, joined by “and”; a condition that tells them apart may be missing. Equal entries are not always repeated. Entries after “also recorded” stand apart in the source; their conditions may differ. Where two headings read alike, the source gives them in different places.

T6 sequence (P22001 whole entry): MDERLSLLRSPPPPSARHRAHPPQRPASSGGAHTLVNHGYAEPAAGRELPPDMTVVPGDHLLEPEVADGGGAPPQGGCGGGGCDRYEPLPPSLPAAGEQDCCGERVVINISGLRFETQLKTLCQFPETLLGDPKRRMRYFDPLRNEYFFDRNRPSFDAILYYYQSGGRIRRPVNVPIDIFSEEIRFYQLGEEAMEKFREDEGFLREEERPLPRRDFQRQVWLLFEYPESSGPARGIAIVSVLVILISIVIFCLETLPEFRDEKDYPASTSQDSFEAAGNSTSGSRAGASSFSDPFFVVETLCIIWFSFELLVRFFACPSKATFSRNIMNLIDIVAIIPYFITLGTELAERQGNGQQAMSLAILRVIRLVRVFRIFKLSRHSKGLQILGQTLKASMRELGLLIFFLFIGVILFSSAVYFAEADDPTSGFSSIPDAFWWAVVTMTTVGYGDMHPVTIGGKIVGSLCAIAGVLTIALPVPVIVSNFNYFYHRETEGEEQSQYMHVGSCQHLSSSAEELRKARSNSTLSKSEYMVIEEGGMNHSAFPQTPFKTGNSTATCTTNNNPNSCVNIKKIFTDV
T7 sequence (Q09470 whole entry): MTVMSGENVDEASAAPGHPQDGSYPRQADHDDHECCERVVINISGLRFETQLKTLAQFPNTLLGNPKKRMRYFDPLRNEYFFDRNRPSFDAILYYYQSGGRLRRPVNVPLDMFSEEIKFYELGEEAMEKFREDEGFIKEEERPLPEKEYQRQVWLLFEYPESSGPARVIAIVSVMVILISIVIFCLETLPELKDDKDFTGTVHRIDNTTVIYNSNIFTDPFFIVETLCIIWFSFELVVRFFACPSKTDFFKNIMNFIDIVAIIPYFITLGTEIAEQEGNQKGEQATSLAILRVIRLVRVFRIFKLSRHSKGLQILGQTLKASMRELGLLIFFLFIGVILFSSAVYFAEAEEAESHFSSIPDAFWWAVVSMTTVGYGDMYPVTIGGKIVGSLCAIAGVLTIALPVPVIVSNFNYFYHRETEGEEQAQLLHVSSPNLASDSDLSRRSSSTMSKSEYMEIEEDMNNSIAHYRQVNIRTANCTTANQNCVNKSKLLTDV
T1 sequence (P22460 whole entry): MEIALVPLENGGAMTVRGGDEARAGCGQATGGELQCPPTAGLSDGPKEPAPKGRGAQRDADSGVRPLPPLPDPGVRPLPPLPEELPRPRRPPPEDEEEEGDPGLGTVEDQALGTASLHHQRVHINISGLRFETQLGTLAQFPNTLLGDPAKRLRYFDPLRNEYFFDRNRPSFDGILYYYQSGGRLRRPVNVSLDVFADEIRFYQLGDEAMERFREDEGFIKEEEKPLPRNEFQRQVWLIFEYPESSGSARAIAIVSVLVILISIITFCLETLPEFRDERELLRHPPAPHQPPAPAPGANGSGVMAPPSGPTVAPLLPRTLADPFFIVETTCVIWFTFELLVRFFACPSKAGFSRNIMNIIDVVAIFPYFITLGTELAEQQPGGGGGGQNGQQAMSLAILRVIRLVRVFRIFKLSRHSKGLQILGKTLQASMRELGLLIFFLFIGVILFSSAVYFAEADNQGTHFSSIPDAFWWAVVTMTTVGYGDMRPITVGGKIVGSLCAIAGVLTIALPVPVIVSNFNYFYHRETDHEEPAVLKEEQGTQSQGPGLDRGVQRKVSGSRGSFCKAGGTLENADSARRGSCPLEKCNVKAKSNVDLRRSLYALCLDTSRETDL
T5 sequence (Q14524 whole entry): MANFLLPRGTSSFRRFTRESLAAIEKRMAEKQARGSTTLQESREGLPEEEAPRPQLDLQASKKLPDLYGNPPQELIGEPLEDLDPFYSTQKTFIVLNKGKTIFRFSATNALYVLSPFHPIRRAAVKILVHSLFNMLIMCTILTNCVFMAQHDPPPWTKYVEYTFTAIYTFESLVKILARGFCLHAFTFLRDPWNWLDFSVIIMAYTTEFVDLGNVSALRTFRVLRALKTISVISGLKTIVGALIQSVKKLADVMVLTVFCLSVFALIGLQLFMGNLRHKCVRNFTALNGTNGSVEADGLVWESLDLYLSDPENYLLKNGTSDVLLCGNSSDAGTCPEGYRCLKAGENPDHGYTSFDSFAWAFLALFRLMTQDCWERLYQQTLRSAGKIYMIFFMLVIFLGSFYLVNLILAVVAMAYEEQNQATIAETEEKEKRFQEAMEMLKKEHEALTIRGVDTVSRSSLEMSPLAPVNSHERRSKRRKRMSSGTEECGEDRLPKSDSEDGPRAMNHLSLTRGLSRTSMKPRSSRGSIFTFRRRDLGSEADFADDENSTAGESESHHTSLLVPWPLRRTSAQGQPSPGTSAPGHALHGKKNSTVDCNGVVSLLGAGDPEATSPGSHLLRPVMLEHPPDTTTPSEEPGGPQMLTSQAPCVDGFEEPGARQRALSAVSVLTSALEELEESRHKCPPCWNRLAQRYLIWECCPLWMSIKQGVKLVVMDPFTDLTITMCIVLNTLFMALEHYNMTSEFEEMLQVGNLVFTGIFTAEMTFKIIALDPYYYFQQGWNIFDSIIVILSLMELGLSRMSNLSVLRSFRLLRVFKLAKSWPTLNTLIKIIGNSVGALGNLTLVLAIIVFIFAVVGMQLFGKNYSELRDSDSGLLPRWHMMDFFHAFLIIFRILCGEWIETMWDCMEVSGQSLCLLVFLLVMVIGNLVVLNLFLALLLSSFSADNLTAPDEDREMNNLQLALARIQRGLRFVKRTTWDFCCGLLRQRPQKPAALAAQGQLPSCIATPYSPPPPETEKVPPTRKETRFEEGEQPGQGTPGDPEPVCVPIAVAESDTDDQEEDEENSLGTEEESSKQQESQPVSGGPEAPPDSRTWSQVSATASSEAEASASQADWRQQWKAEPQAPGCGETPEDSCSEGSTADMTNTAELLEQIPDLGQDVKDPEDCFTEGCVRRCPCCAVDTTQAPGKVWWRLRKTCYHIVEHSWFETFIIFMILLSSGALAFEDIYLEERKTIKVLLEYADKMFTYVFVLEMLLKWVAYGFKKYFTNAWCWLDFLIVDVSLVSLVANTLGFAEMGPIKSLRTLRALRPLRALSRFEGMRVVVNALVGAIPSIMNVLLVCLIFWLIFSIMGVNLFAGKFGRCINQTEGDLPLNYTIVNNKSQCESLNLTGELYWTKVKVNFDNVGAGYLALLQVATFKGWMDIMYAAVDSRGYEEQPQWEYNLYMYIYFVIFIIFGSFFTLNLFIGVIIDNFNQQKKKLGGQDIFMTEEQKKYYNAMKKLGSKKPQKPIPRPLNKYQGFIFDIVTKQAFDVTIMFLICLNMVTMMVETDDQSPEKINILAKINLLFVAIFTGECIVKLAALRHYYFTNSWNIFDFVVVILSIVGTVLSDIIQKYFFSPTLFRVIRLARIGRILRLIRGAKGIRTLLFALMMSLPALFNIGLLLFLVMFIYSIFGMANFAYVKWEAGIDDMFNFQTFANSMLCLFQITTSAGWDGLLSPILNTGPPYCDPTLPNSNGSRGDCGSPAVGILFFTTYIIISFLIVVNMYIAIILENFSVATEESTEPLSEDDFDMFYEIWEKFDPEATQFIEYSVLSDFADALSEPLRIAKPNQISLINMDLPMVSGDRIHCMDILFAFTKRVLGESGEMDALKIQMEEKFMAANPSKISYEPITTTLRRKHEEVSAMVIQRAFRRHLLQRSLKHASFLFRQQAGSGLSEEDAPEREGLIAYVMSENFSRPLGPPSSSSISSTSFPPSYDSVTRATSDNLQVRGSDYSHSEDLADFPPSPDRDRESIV
hKV1.4-IR, sequence (P22459 149-653 limits assumed): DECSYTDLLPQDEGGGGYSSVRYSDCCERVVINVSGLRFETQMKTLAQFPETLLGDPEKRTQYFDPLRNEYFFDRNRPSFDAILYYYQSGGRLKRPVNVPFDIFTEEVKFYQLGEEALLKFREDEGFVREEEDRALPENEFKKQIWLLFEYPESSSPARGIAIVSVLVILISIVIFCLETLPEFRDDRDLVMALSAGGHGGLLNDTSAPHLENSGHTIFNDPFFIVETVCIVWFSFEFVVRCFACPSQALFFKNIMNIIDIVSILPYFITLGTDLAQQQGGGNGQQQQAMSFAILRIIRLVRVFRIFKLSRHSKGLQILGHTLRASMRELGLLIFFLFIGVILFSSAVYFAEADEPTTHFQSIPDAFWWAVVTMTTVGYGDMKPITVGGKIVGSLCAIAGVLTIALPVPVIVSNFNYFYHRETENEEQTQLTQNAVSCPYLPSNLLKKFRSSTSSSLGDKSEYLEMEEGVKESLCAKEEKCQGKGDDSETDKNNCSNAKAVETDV

`N=C(N)Nc1nc2ccc(Cl)cc2[nH]1` [ClGBI, 5-chloro-2-guanidinobenzimidazole]: the “effect on lymphocyte proliferation” value in [1] is reported as “completely blocked; also recorded: significant suppression”. For the same compound, the potency estimated from few doses in [2] was 188 ± 38 µM; in [3], 310 ± 43.6 µM; in data set [4], 77.5 ± 14.2 µM; in data set [5] (CHO, estimated from single concentration (200 μM), bimolecular interaction assumed, n = 5, read-out: estimated Kd) it was 894 ± 134 µM; in data set [6], 591 ± 123 µM; in [7] it was 187 ± 35.7 µM. Besides, the results for the potency estimated from few doses in data set [9] and in data set [12] were 12 ± 2.1 µM and 324 ± 13.1 µM, respectively. Further, the “inhibition of KCa3.1” value in data set [5] (200 μM ClGBI) was “inhibited KCa3.1 to a small extent”. Further, the Kd in [8] is approximately 26 µM; in [10] it was 12 to 894 µM; in [11] (two-parameter Hill fit of RCF dose-response, human lymphocytes) it was 72.4 µM and ~72 µM. In addition, the “time to reach block saturation” value in data set [11] (200 μM ClGBI) was in the range of 50 to 100 s. In addition, the “reduction in current amplitude” value in data set [11] (200 μM ClGBI, equilibrium block) is given as ~ 75%. In addition, in data set [11] (200 μM ClGBI, equilibrium block, n = 9), the “remaining current fraction (RCF)” value came out at 0.25 ± 0.01. In addition, the “association time constant τon” value in [11] (200 μM ClGBI, single exponential fit, n = 3) is given as 22.1 ± 2.7 s. Besides, in data set [11] (after 200 μM ClGBI, perfusion with ClGBI-free ECS), the “reversibility of block on washout” value is “complete recovery from block; also recorded: complete recovery from current inhibition”. For the same compound, in data set [11] (two-parameter Hill fit of RCF dose-response), the “Hill coefficient nH” value was 1.1 ± 0.07.
Consider `CC[N+](CC)(CC)CC` [TEA^+, tetraethylammonium], for which the Kd is 10 mM in data set [13] and 300 µM in data set [14].
